Columns and labels:
Type in all cases: cell-based
[1] = test system: Oenococcus oeni; assay: Pasteurized 30% glycerol solution inoculated with Oenococcus oeni; conditions: 48 hours at 25° C.; Penicillin 10 mg/l, emulsion A 20 mg/l, emulsion B 150 mg/l
Procedure: A 30% solution of glycerol is pasteurized at 65° C. for 30 minutes. After cooling, four 50-ml parts are formed, each of which receives the addition of 1 ml of inoculum (00) of Oenococcus oeni, so as to have a bacterial load of 1×10^5 ufc/l.
The first part is kept as a control; the second part receives the addition of 10 mg/l of Penicillin (Pen); the third part receives the addition of 20 mg/l of an emulsion A of menadione (composition: 50% menadione, 50% ethanol); the fourth part receives the addition of 150 mg/l of an emulsion B of menadione (composition: menadione 10%, ricinoleate 90%).

[2] = test system: broad spectrum of microorganisms, including yeasts; assay: Biocidal activity in a liquid biomass; conditions: weight of menadione/total weight of the biomass and of the compound
[3] = test system: Saccharomyces cerevisiae; assay: Growth of Saccharomyces cerevisiae strains in liquid biomass containing menadione
[4] = test system: Lactobacillus plantarum; assay: Pasteurized 20% molasses solution inoculated with Lactobacillus plantarum; conditions: 48 hours at 25° C., MSB 50 ppm, MSB-C 100 ppm; for Lactic acid / Ufc/l (bacterial load): virginiamycin 2 mg/l
Procedure: A 20% solution of molasses is pasteurized at 65° C. for 30 minutes. After cooling, five 50-ml parts are formed: of these, one is kept as a control and the remaining four each receive the addition of 1 ml of inoculum (Lp) of Lactobacillus plantarum (1×10^5 ufc/ml). The third part then receives the addition of 2 mg/l of virginiamycin, the fourth part receives the addition of 50 ppm of menadione sodium bisulfite, while the fifth part receives the addition of 100 ppm of a mixture of menadione sodium bisulfite and sodium bisulfite known as MSB-C (composition of mixture: 65% MSB and 35% sodium bisulfite).

[5] = test system: Lactobacillus fermentum; assay: Bioethanol fermentation of 33% corn flour dispersion with Saccharomyces cerevisiae contaminated with Lactobacillus fermentum; conditions: for Ethanol / Glucose (residual, non-fermented) / Lactic acid: 72 hours at 32° C., Sc + Lf inoculum, Virg 2 ppm, MSB 20 ppm
Procedure: The capacity of menadione sodium bisulfite to contrast the negative effect of bacterial contamination on the production of bioethanol is tested by using a 33% aqueous dispersion of corn flour, which is a typical substrate used in the bioethanol industry.
Using this dispersion, four parts of 40 ml each are prepared and are placed in four separate flasks (procedure described by Bischoff K. M. et al. in Biotechnology and Bioengineering 2009, 103, 117-122).
Flask 1 (witness) receives the addition of 0.5 ml of inoculum (Sc) of Saccharomyces cerevisiae (1×10^7 ufc/ml). Flask 2 receives the addition of 0.5 ml of inoculum (Sc) of Saccharomyces and 0.5 ml of inoculum (Lf) of Lactobacillus fermentum (1×10^8 ufc/ml); flask 3 receives the addition of 0.5 ml of inoculum (Sc) of Saccharomyces, 0.5 ml of inoculum (Lf) of Lactobacillus fermentum and 0.5 ml of a solution of virginiamycin with such a titer as to have, in the flask, a concentration of antibiotic equal to 2 mg/l. Flask 4 receives the addition of 0.5 ml of inoculum (Sc) of Saccharomyces, 0.5 ml of inoculum (Lf) of Lactobacillus fermentum and 0.5 ml of a solution of menadione sodium bisulfite (1600 mg/l ) with such a titer as to have in the flask a concentration of MSB equal to 20 ppm by weight.
Then the four flasks are kept under bland agitation and at the temperature of 32° C. for 72 hours. At the end of the incubation period, the four parts are analyzed for their content of ethanol, glucose and lactic acid.

Row | Molecule | Ufc/l (bacterial load) [1] | Concentration from which biocidal activity is exhibited [2] | Menadione concentration that allows growth of all the tested strains ([3]; liquid biomass) | Growth response of Saccharomyces cerevisiae ([3]; menadione concentration between 400 and 500 ppm) | Lactic acid [4] | Ufc/l (bacterial load) [4] | Effect on the bacterial inoculum [4] | Ethanol [5] | Glucose (residual, non-fermented) [5] | Lactic acid [5] | Effect on the bacterial inoculum ([5]; flask 4, MSB 20 ppm) | Effect on growth of the yeast ([5]; flask 4, MSB 20 ppm, Saccharomyces cerevisiae)
1 | Penicillin | <1 × 10^2 Ufc/l |  |  |  |  |  |  |  |  |  |  | 
2 | CC1=CC(=O)c2ccccc2C1=O [menadione, 2-methylnaphthalene-1,4-dione] |  | at least 500 ppm | below 400 ppm | varies depending on the tested strains |  |  |  |  |  |  |  | 
3 | CC1(S(=O)(=O)[O-])CC(=O)c2ccccc2C1=O.[Na+] (centres unmarked) [MSB, menadione sodium bisulfite] |  |  |  |  | 0.40 g/L | <1 × 10^3 Ufc/l | inhibiting completely the bacterial inoculum | 111.3 g/L | 6.2 g/L | 0.5 g/L | able to inhibit the bacterial inoculum | has not harmed the growth of the yeast
4 | virginiamycin [reference compound] |  |  |  |  | 0.15 g/L | <1 × 10^2 Ufc/l |  | 108.2 g/L | 6.4 g/L | 0.4 g/L |  | 
